According to patent US8846949B2, “Pyrrolopyrazoles as N-type calcium channel blockers” (Janssen Pharmaceutica NV, priority 2012, dated 2014):

Biological target: T1, N-type calcium channel α1B (Cav2.2), β3 and α2δ subunits (Homo sapiens, UniProt Q00975)
T1 construct: expressed in transfected cells
Test: Functional assay, antagonism of N-type calcium channel (FDSS calcium mobilization response to KCl depolarization)
Format: cell-based
Settings: for IC50: HEK stable cell line, 50 mM KCl depolarization, six-point concentration-response; for inhibition at 1 µM: 1 μM compound, FDSS, 50 mM KCl
Description: A stable cell line (HEK parent) co-expressing the α1B (Cav2.2), β3 and α2δ subunits of the N-type calcium channel subunits was used. These cells were routinely grown as monolayers in low glucose-containing Dulbecco's Modified Eagle Medium supplemented with 10% FBS, 2 mM L-glutamine, 100 I.U./mL penicillin, 100 μg/mL streptomycin, 400 μg/mL G418 and 200 μg/mL Zeocin (split ratio=1:5). Cells were maintained in 5% CO2 at 37° C. Compounds of Formula (I) were prepared as 10 mM stocks in DMSO from neat compound, if available. Otherwise, the 5 or 10 mM DMSO stock solutions provided in-house were used.
Calcium mobilization responses to KCl depolarization were evaluated by measuring the intensity of calcium-mediated fluorescent signal in the presence of BD Calcium Assay Dye (BD Biosciences, Franklin Lakes, N.J., U.S.A.), utilizing a Functional Drug Screening System (FDSS) by Hamamatsu Corporation (Bridgewater, N.J. U.S.A.).
Twenty-four hr prior to assay, cells were seeded in clear-base poly-D-lysine-coated 384-well plates (BD Biosciences) at a density of 5,000 cells per well in culture medium and grown overnight in 5% CO2 at 37° C. On the day of assay, growth media were removed, and cells were loaded with BD calcium assay dye (BD Biosciences) for 35 min at 37° C. under 5% CO2 and then for 25 min at room temp. Utilizing the FDSS, cells were exposed to representative compounds of Formula (I) at varying concentrations, and intracellular calcium was measured for 5 min prior to the addition of 50 mM KCl for an additional 3 min of measurement.
IC50 values for representative compounds of Formula (I) were determined from six-point concentration-response experiments and represent the concentration of said compound required to inhibit 50% of the maximal response. Maximal fluorescence intensity (FI) achieved upon addition of 50 mM KCl was exported from the FDSS software and further analyzed using GraphPad Prism 3.02 (Graph Pad Software Inc., San Diego, Calif., U.S.A.). Data were normalized to the maximum average counts from quadruplicate wells for each condition in the presence of 50 mM KCl and to the minimum average counts in the presence of buffer. Theoretical curves were generated using nonlinear regression curve-fitting analysis of either sigmoidal concentration-response or sigmoidal concentration-response (variable slope), and the IC50 values with the best-fit curve determined by GraphPad Prism were reported.

T1 sequence (Q00975 whole entry): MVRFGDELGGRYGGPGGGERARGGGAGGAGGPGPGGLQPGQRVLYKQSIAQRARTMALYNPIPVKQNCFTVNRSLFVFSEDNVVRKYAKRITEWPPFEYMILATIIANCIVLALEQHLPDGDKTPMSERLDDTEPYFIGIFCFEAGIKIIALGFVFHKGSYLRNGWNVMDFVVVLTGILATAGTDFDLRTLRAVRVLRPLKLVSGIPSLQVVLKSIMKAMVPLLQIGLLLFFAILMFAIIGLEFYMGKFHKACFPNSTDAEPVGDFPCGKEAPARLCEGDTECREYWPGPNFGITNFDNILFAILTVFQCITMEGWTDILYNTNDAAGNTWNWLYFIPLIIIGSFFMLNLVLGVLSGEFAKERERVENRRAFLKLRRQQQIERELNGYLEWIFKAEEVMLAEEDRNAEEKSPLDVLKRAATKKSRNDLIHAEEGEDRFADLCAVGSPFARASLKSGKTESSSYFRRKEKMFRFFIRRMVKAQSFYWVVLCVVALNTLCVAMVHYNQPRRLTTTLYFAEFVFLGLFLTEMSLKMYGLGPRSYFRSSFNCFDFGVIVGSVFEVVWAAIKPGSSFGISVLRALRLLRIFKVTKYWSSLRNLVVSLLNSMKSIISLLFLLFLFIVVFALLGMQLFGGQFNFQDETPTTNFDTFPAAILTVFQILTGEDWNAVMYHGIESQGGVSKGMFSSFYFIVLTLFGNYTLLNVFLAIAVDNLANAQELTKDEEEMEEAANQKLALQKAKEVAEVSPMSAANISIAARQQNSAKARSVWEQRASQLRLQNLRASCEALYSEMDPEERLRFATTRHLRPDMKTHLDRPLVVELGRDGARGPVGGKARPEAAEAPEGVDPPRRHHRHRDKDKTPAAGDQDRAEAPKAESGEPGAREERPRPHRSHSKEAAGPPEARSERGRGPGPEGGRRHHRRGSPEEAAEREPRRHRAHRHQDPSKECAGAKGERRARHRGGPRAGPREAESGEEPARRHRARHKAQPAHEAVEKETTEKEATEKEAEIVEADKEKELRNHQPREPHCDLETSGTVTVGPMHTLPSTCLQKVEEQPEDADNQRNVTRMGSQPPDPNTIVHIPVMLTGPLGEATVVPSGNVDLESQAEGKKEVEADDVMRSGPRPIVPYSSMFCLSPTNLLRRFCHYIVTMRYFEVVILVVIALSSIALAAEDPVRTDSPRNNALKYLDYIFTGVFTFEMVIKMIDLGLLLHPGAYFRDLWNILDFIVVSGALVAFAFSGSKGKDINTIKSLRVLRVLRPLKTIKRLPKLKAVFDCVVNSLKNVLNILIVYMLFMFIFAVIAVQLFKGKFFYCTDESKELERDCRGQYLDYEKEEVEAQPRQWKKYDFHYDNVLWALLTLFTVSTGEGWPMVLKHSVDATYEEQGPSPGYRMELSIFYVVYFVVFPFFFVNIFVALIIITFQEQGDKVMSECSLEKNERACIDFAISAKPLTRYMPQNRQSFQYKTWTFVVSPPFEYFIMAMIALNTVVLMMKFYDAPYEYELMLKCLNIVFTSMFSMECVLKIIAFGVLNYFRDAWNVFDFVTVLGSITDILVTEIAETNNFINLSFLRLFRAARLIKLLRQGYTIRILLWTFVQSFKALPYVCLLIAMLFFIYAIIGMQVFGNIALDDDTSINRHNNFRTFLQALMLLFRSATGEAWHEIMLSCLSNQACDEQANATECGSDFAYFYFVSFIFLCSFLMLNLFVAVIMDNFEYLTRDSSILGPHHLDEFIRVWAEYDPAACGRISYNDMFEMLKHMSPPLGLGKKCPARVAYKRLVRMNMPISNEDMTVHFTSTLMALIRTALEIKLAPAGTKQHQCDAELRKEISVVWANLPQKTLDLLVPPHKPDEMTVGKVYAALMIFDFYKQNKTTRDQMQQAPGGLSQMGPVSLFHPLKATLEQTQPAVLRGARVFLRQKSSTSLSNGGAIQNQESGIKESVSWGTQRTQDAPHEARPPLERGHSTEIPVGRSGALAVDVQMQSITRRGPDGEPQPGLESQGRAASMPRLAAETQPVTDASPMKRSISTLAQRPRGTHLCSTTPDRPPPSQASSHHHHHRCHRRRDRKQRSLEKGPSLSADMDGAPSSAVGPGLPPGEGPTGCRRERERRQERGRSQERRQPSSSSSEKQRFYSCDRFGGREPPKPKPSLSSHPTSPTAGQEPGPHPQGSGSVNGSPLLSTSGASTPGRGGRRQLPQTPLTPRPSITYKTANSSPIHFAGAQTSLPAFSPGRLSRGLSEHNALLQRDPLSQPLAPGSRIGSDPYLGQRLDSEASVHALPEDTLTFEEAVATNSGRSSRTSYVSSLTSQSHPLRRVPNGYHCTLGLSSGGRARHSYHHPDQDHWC
T1 sequence (P54284 whole entry partner): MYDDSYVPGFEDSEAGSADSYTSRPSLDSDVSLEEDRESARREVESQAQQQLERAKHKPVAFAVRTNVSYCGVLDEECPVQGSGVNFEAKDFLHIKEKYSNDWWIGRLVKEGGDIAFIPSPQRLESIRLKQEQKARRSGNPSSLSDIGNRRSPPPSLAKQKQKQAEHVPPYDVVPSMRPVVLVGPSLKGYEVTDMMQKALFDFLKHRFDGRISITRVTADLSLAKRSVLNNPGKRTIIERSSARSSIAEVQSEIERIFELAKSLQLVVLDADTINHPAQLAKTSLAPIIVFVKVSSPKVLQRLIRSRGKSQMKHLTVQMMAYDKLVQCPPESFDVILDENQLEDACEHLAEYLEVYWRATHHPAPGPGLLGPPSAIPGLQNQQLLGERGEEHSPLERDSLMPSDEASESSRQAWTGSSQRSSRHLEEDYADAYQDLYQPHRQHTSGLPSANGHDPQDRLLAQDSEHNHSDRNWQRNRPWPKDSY
T1 sequence (P54289 25-956 partner limits assumed): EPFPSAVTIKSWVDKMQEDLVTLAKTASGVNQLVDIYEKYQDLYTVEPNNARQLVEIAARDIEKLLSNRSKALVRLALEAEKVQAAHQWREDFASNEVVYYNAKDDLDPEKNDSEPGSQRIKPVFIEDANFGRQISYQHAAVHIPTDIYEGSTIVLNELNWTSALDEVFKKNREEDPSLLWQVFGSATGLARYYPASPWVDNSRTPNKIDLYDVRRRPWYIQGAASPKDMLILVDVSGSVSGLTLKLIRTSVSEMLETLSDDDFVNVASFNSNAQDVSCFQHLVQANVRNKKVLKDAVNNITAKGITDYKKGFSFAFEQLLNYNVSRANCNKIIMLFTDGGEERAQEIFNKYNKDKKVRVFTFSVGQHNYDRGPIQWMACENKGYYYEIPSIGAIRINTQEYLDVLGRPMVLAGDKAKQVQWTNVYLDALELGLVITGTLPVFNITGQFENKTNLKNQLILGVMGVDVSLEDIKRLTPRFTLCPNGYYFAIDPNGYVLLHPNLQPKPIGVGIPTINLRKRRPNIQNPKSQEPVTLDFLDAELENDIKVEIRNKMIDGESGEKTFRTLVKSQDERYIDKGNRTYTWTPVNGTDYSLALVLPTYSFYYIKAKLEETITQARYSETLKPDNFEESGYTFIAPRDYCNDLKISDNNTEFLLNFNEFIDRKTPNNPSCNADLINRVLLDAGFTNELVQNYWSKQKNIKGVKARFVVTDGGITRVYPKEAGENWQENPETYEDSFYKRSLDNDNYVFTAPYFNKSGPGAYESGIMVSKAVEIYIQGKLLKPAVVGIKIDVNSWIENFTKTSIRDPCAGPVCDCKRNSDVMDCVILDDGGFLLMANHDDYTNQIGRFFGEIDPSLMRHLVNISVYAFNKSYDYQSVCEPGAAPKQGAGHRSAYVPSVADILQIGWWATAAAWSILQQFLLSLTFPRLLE
T1 sequence (P54289 957-1103 partner limits assumed): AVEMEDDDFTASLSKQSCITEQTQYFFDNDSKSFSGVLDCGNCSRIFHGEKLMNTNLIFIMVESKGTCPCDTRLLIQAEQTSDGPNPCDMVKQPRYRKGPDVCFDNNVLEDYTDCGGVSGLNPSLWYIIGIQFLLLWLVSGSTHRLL

| Structure (SMILES) | IC50 [nM] | inhibition at 1 µM [%] |
| --- | --- | --- |
| CCc1ccccc1-n1nc2c(c1-c1ccc(Cl)cc1)CN(C(=O)OC(C)(C)C)C2 [Cpd 1, tert-Butyl 3-(4-chlorophenyl)-2-(2-ethylphenyl)-2,6-dihydropyrrolo[3,4-c]pyrazole-5(4H)-carboxylate] | 180 |  |
| CCc1ccccc1-n1nc2c(c1-c1ccc(Cl)cc1)CN(S(=O)(=O)C(F)(F)F)C2 [Cpd 3, 3-(4-Chlorophenyl)-2-(2-ethylphenyl)-5-[(trifluoromethyl)sulfonyl]-2,4,5,6-tetrahydropyrrolo[3,4-c]pyrazole] | 150 |  |
| CCc1ccccc1-n1nc2c(c1-c1ccc(Cl)cc1)CN(C(=O)c1cccnc1)C2 [Cpd 4, 3-(4-Chlorophenyl)-2-(2-ethylphenyl)-5-(pyridin-3-ylcarbonyl)-2,4,5,6-tetrahydropyrrolo[3,4-c]pyrazole] | 200 |  |
| CCc1ccccc1-n1nc2c(c1-c1ccc(Cl)cc1)CN(C(=O)c1ccccn1)C2 [Cpd 7, 3-(4-Chlorophenyl)-2-(2-ethylphenyl)-5-(pyridin-2-ylcarbonyl)-2,4,5,6-tetrahydropyrrolo[3,4-c]pyrazole] |  | 58 |
| CCc1ccccc1-n1nc2c(c1-c1ccc(Cl)cc1)CN(C(=O)c1ccco1)C2 [Cpd 8, 3-(4-Chlorophenyl)-2-(2-ethylphenyl)-5-(furan-2-ylcarbonyl)-2,4,5,6-tetrahydropyrrolo[3,4-c]pyrazole] | 600 |  |
| CCc1ccccc1-n1nc2c(c1-c1ccc(Cl)cc1)CN(C(=O)c1cc(C)on1)C2 [Cpd 9, 3-(4-Chlorophenyl)-2-(2-ethylphenyl)-5-[(5-methylisoxazol-3-yl)carbonyl]-2,4,5,6-tetrahydropyrrolo[3,4-c]pyrazole] |  | 63 |
| CCc1ccccc1-n1nc2c(c1-c1ccc(Cl)cc1)CN(C(=O)COC)C2 [Cpd 10, 3-(4-Chlorophenyl)-2-(2-ethylphenyl)-5-(methoxyacetyl)-2,4,5,6-tetrahydropyrrolo[3,4-c]pyrazole] | 280 |  |
| CCc1ccccc1-n1nc2c(c1-c1ccc(Cl)cc1)CN(C(=O)CNS(C)(=O)=O)C2 [Cpd 12, N-{2-[3-(4-Chlorophenyl)-2-(2-ethylphenyl)-2,6-dihydropyrrolo[3,4-c]pyrazol-5(4H)-yl]-2-oxoethyl}methanesulfonamide] | 520 |  |
| CCc1ccccc1-n1nc2c(c1-c1ccc(Cl)cc1)CN(C(=O)CNS(=O)(=O)C(F)(F)F)C2 [Cpd 13, N-{2-[3-(4-Chlorophenyl)-2-(2-ethylphenyl)-2,6-dihydropyrrolo[3,4-c]pyrazol-5(4H)-yl]-2-oxoethyl}-1,1,1-trifluoromethanesulfonamide] |  | 59 |
| CC(C)(C)OC(=O)N1Cc2nn(-c3ccccc3C(F)(F)F)c(-c3ccc(Cl)cc3)c2C1 [Cpd 14, tert-Butyl 3-(4-chlorophenyl)-2-[2-(trifluoromethyl)phenyl]-2,6-dihydropyrrolo[3,4-c]pyrazole-5(4H)-carboxylate] |  | 60 |
| CS(=O)(=O)N1Cc2nn(-c3ccccc3C(F)(F)F)c(-c3ccc(Cl)cc3)c2C1 [Cpd 15, 3-(4-Chlorophenyl)-5-(methylsulfonyl)-2-[2-(trifluoromethyl)phenyl]-2,4,5,6-tetrahydropyrrolo[3,4-c]pyrazole] | 280 |  |
| CC(C)S(=O)(=O)N1Cc2nn(-c3ccccc3C(F)(F)F)c(-c3ccc(Cl)cc3)c2C1 [Cpd 16, 3-(4-Chlorophenyl)-5-[(1-methylethyl)sulfonyl]-2-[2-(trifluoromethyl)phenyl]-2,4,5,6-tetrahydropyrrolo[3,4-c]pyrazole] | 160 |  |
| Cc1ccc(S(=O)(=O)N2Cc3nn(-c4ccccc4C(F)(F)F)c(-c4ccc(Cl)cc4)c3C2)cc1 [Cpd 17, 3-(4-Chlorophenyl)-5-[(4-methylphenyl)sulfonyl]-2-[2-(trifluoromethyl)phenyl]-2,4,5,6-tetrahydropyrrolo[3,4-c]pyrazole] | 300 |  |
| CC(C)(C)OC(=O)NCC(=O)N1Cc2nn(-c3ccccc3C(F)(F)F)c(-c3ccc(Cl)cc3)c2C1 [Cpd 18, tert-Butyl{2-[3-(4-chlorophenyl)-2-[2-(trifluoromethyl)phenyl]-2,6-dihydropyrrolo[3,4-c]pyrazol-5(4H)-yl]-2-oxoethyl}carbamate] | 480 |  |
| CC(C)(C)OC(=O)N1Cc2nn(-c3ccccc3OC(F)(F)F)c(-c3ccc(Cl)cc3)c2C1 [Cpd 19, tert-Butyl 3-(4-chlorophenyl)-2-[2-(trifluoromethoxy)phenyl]-2,6-dihydropyrrolo[3,4-c]pyrazole-5(4H)-carboxylate] | 300 |  |
| O=C(N1Cc2nn(-c3ccccc3OC(F)(F)F)c(-c3ccc(Cl)cc3)c2C1)C(F)(F)F [Cpd 21, 3-(4-Chlorophenyl)-5-(trifluoroacetyl)-2-[2-(trifluoromethoxy)phenyl]-2,4,5,6-tetrahydropyrrolo[3,4-c]pyrazole] | 300 |  |
| N#Cc1cccc(N2Cc3nn(-c4ccccc4OC(F)(F)F)c(-c4ccc(Cl)cc4)c3C2)c1 [Cpd 23, 3-[3-(4-Chlorophenyl)-2-[2-(trifluoromethoxy)phenyl]-2,6-dihydropyrrolo[3,4-c]pyrazol-5(4H)-yl]benzonitrile] |  | 52 |
| COC(=O)c1ccc(N2Cc3nn(-c4ccccc4OC(F)(F)F)c(-c4ccc(Cl)cc4)c3C2)cc1 [Cpd 24, Methyl 4-[3-(4-chlorophenyl)-2-[2-(trifluoromethoxy)phenyl]-2,6-dihydropyrrolo[3,4-c]pyrazol-5(4H)-yl]benzoate] |  | 64 |
| N#Cc1ccc(N2Cc3nn(-c4ccccc4OC(F)(F)F)c(-c4ccc(Cl)cc4)c3C2)cc1 [Cpd 25, 4-[3-(4-Chlorophenyl)-2-[2-(trifluoromethoxy)phenyl]-2,6-dihydropyrrolo[3,4-c]pyrazol-5(4H)-yl]benzonitrile] |  | 57 |
| O=S(=O)(NCCN1CCOCC1)c1ccc(N2Cc3nn(-c4ccccc4OC(F)(F)F)c(-c4ccc(Cl)cc4)c3C2)cc1 [Cpd 26, 4-[3-(4-Chlorophenyl)-2-[2-(trifluoromethoxy)phenyl]-2,6-dihydropyrrolo[3,4-c]pyrazol-5(4H)-yl]-N-(2-morpholin-4-ylethyl)benzenesulfonamide] |  | 57 |
| COc1ccccc1-n1nc2c(c1-c1ccc(Cl)cc1)CN(C(=O)CNC(=O)OC(C)(C)C)C2 [Cpd 29, tert-Butyl{2-[3-(4-chlorophenyl)-2-(2-methoxyphenyl)-2,6-dihydropyrrolo[3,4-c]pyrazol-5(4H)-yl]-2-oxoethyl}carbamate] | 180 |  |
| COc1ccccc1-n1nc2c(c1-c1ccc(Cl)cc1)CN(C(=O)N(C)C)C2 [Cpd 34, 3-(4-Chlorophenyl)-2-(2-methoxyphenyl)-N,N-dimethyl-2,6-dihydropyrrolo[3,4-c]pyrazole-5(4H)-carboxamide] | 170 |  |
| COc1ccccc1-n1nc2c(c1-c1ccc(Cl)cc1)CN(S(=O)(=O)CCN1C(=O)c3ccccc3C1=O)C2 [Cpd 38, 2-(2-{[3-(4-Chlorophenyl)-2-(2-methoxyphenyl)-2,6-dihydropyrrolo[3,4-c]pyrazol-5(4H)-yl]sulfonyl}ethyl)-1H-isoindole-1,3(2H)-dione] | 53 |  |
| COc1ccccc1-n1nc2c(c1-c1ccc(Cl)cc1)CN(S(=O)(=O)Cc1ccccc1)C2 [Cpd 39, 5-(Benzylsulfonyl)-3-(4-chlorophenyl)-2-(2-methoxyphenyl)-2,4,5,6-tetrahydropyrrolo[3,4-c]pyrazole] | 27 |  |
